This passage reports IC50 results from ChEMBL document CHEMBL1157193, “Synthesis and anti-Trypanosoma cruzi activity of derivatives from nor-lapachones and lapachones” (Bioorg Med Chem, 2008).

Each structure is given as a SMILES string.

This test relates to Trypanosoma cruzi. The test is described as follows: Trypanocidal activity against Trypanosoma cruzi Y blood stream trypomastigotes after 24 hrs. The test is classed as functional, organism-based.
Usually IC50 stands for the concentration needed to halve the response being measured. The low end stands for higher potency, the high end for lower potency. Regarding `Cc1ccc(C)c(NC2C3=C(OC2(C)C)c2ccccc2C(=O)C3=O)c1` (stereo not drawn), the IC50 was determined as 1760 µM.
`CC1(C)OC2=C(C(=O)C(=O)c3ccccc32)C1Nc1ccc(F)cc1` (stereo not drawn) displayed an IC50 of 2520 µM.
Next, `CC1(C)OC2=C(C(=O)C(=O)c3ccccc32)C1Nc1cccc(Cl)c1` (stereo not drawn): 333 µM.
The compound `CC1(C)OC2=C(C(=O)C(=O)c3ccccc32)C1Nc1cccc(Br)c1` (stereo not drawn) showed an IC50 of 141 µM.
`CC1(C)OC2=C(C(=O)C(=O)c3ccccc32)C1Nc1cccc([N+](=O)[O-])c1` (stereo not drawn) displayed an IC50 of 86.3 µM.
Turning to `CC1(C)OC2=C(C(=O)c3ccccc3C2=O)C1Nc1ccccc1` (stereo not drawn), the IC50 is greater than 4000 µM.
Regarding `CC1(C)OC2=C(C(=O)C(=O)c3ccccc32)C1Nc1ccc(Cl)cc1` (stereo not drawn), the IC50 was determined as 384 µM.
`CC1(C)OC2=C(C(=O)C(=O)c3ccccc32)C1O` (stereo not drawn) showed an IC50 of 212 µM.
The compound `COc1ccc(NC2C3=C(OC2(C)C)c2ccccc2C(=O)C3=O)cc1` (stereo not drawn) showed an IC50 of 88.2 µM.
On to `CC1(C)CC(Nc2ccccc2)C2=C(O1)C(=O)c1ccccc1C2=O` (stereo not drawn), for which the IC50 came to 342 µM.
Turning to `CC1(C)CC2=C(O1)C1(CO1)c1ccccc1C2=O` (stereo not drawn), the IC50 is greater than 4000 µM.
On to `CC1(C)OC2=C(C(=O)C(=O)c3ccccc32)C1Nc1cccc(F)c1` (stereo not drawn), for which the IC50 is greater than 4000 µM.
Take `CC1(C)OC2=C(C(=O)C(=O)c3ccccc32)C1Nc1ccc(Br)cc1` (stereo not drawn): the IC50 came out at 952 µM.
For the compound `CC1(C)OC2=C(C(=O)C(=O)c3ccccc32)C1Nc1ccc([N+](=O)[O-])cc1` (stereo not drawn), the IC50 was 857 µM.
The compound `CC1(C)OC2=C(C(=O)c3ccccc3C2=O)C1N=[N+]=[N-]` (stereo not drawn) gave an IC50 of 179 µM.
Compound `CC1(C)CC2=C(O1)C(=O)c1ccccc1C2=O` showed an IC50 greater than 4800 µM.
Then `CC1(C)CCC2=C(O1)C(=O)c1ccccc1C2=O` [ALPHA-LAPACHONE], with greater than 4800 µM; and `CC(C)=CCC1=C(O)C(=O)c2ccccc2C1=O` [LAPACHOL], with 411 µM.
